Measurements: US6194387A, “6-O-aklyl erythromycin B oxime” (Abbott Laboratories, priority 1999, dated 2001)
≈ marks a conversion by molar mass, not a printed value. Like-named read-outs stand apart in the source and are kept apart here.

Key:
STAP[…] = assay: in vitro antibacterial activity, agar dilution MIC; format: cell-based, Staphylococcus agalactiae; conditions: Staphylococcus, read-out: SMIC
Protocol: (§1) 6-O-Methyl-9-oxime erythromycin B prepared in accordance with Examples 1 and 2 was assayed in vitro for anitbacterial activity as follows: Twelve petri dishes containing successive aqueous dilutions of the test compound mixed with 10 mL of sterilized Brain Heart Infusion (BHI) agar (Difco 0418-01-5) were prepared. Each plate was inoculated with 1:100 (or 1:10 for slow-growing strains, such as Micrococcus and Streptococcus) dilutions of up to 32 different micoorganisims, using a Steers replicatore block. The inoculated plates were incubated at 35-37° C. for 20 to 24 hours. In addition, a control plate, using BHI agar containing no test compound, was prepared and incubated at the beginning and end of each test.
(§2) An additional plate containing a compound having known susceptibility patterns for the organisms being tested and belonging to the same antibiotic class as the test compound was also prepared and incubated as further control, as well as to provide test-to-test comparability. Erythromycin A was used for this purpose.
(§3) After incubation, each disk was read. The minimum inhibitory concentration (MIC) was defined as the lowest concentration of drug yielding no growth, a slight haze, or sparsely isolated colonies on the inoculum spot as compared to the growth control.

[1] = tested on: ACINETOBACTER CALCOACETICUS; assay: in vitro antibacterial activity, agar dilution MIC; format: cell-based; conditions: read-out: SMIC
Protocol: as §1, §2, §3

EN[…] [2] = assay: in vitro antibacterial activity, agar dilution MIC; format: cell-based; conditions: Enterococcus faecium, ATCC8043, read-out: SMIC
Protocol: as §1, §2, §3

HAEMOPHILUS INFLUENZAE = assay: in vitro antibacterial activity, agar dilution MIC; format: cell-based
Protocol: as §1, §2, §3

KLEBSIELLA PNEUMONIAE = assay: in vitro antibacterial activity, agar dilution MIC; format: cell-based; conditions: ATCC8045, read-out: SMIC
Protocol: as §1, §2, §3

MYCOBACTERIIUM SMEGMATIS = assay: in vitro antibacterial activity, agar dilution MIC; format: cell-based; conditions: read-out: SMIC
Protocol: as §1, §2, §3

M[…] [3] = assay: in vitro antibacterial activity, agar dilution MIC; format: cell-based; conditions: Micrococcus luteus, ATCC4698, read-out: SMIC
Protocol: as §1, §2, §3

NOCARDIA ASTEROIDES = assay: in vitro antibacterial activity, agar dilution MIC; format: cell-based; conditions: ATCC9970, Table 2, ATCC 9970, read-out: SMIC
Protocol: as §1, §2, §3

PROVIDENCIA STUART II = assay: in vitro antibacterial activity, agar dilution MIC; format: cell-based; conditions: read-out: SMIC
Protocol: as §1, §2, §3

PSEUDOMONAS AERUGINOSA = assay: in vitro antibacterial activity, agar dilution MIC; format: cell-based
Protocol: as §1, §2, §3

PSEUDOMONAS CEPACIA = assay: in vitro antibacterial activity, agar dilution MIC; format: cell-based; conditions: Burkholderia cepacia; Table 2; 2961; read-out: SMIC
Protocol: as §1, §2, §3

STAPHYLOCOCCUS AUREUS = assay: in vitro antibacterial activity, agar dilution MIC; format: cell-based
Protocol: as §1, §2, §3

STAPHYLOCOCCUS BOVIS = assay: in vitro antibacterial activity, agar dilution MIC; format: cell-based; conditions: read-out: SMIC
Protocol: as §1, §2, §3

[4] = tested on: STAPHYLOCOCCUS EPIDERMIDIS; assay: in vitro antibacterial activity, agar dilution MIC; format: cell-based; conditions: read-out: SMIC
Protocol: as §1, §2, §3

[5] = tested on: STAPHYLOCOCCUS PNEUMONIAE; assay: in vitro antibacterial activity, agar dilution MIC; format: cell-based
Protocol: as §1, §2, §3

STAPHYLOCOCCUS PYOGENES = assay: in vitro antibacterial activity, agar dilution MIC; format: cell-based
Protocol: as §1, §2, §3

M[…] [6] = assay: in vitro antibacterial activity, agar dilution MIC; format: cell-based, Micrococcus pyogenes; conditions: Staphylococcus aureus, ATCC9341, read-out: SMIC
Protocol: as §1, §2, §3

EN[…] [7] = assay: in vitro antibacterial activity, agar dilution MIC; format: cell-based, Enterobacter aerogenes; conditions: Klebsiella aerogenes, ATCC13048, read-out: SMIC
Protocol: as §1, §2, §3

CANDIDA ALBICANS = assay: in vitro antimicrobial activity, agar dilution MIC; format: cell-based; conditions: read-out: SMIC
Protocol: as §1, §2, §3

CC[C@H]1OC(=O)[C@H](C)[C@@H](O[C@H]2C[C@@](C)(OC)[C@@H](O)[C@H](C)O2)[C@H](C)[C@@H](O[C@@H]2O[C@H](C)C[C@H](N(C)C)[C@H]2O)[C@](C)(O)C[C@@H](C)C(=O)[C@H](C)[C@@H](O)[C@]1(C)O [Erythromycin A, reference compound]
MIC (STAP[…]): 0.01 µg/mL (≈ 0.0136 µM) | MIC [1]: 12.5 µg/mL (≈ 17 µM) | MIC (EN[…] [2]): 0.05 µg/mL (≈ 0.0681 µM) | MIC (HAEMOPHILUS INFLUENZAE; ATCC10211, read-out: SIMC, Table 3, ATCC 10211): 8 µg/mL (≈ 10.9 µM) | MIC (HAEMOPHILUS INFLUENZAE; ATCC19418, read-out: SIMC, Table 3, ATCC 19418): 8 µg/mL (≈ 10.9 µM) | MIC (HAEMOPHILUS INFLUENZAE; ATCC43095, read-out: SIMC, Table 3, ATCC 43095): 1 µg/mL (≈ 1.36 µM) | MIC (HAEMOPHILUS INFLUENZAE; read-out: SIMC, Table 3, CMX 503B): 8 µg/mL (≈ 10.9 µM) | MIC (HAEMOPHILUS INFLUENZAE; read-out: SIMC, Table 3, CMX 504): 8 µg/mL (≈ 10.9 µM) | MIC (HAEMOPHILUS INFLUENZAE; read-out: SIMC, Table 3, CMX 519A): 4 µg/mL (≈ 5.45 µM) | MIC (HAEMOPHILUS INFLUENZAE; read-out: SIMC, Table 3, CMX 566A): 4 µg/mL (≈ 5.45 µM) | MIC (HAEMOPHILUS INFLUENZAE; read-out: SIMC, Table 3, CMX 588A): 4 µg/mL (≈ 5.45 µM) | MIC (HAEMOPHILUS INFLUENZAE; read-out: SIMC, Table 3, CMX 632A): 4 µg/mL (≈ 5.45 µM) | MIC (HAEMOPHILUS INFLUENZAE; read-out: SIMC, Table 3, CMX 747C): 8 µg/mL (≈ 10.9 µM) | MIC (HAEMOPHILUS INFLUENZAE; read-out: SIMC, Table 3, CMX 751): 8 µg/mL (≈ 10.9 µM) | MIC (HAEMOPHILUS INFLUENZAE; read-out: SIMC, Table 3, GYR 1177): 0.25 µg/mL (≈ 0.341 µM) | MIC (HAEMOPHILUS INFLUENZAE; read-out: SIMC, Table 3, GYR 1435): 2 µg/mL (≈ 2.73 µM) | MIC (HAEMOPHILUS INFLUENZAE; read-out: SIMC, Table 3, SOL AMP R): 4 µg/mL (≈ 5.45 µM) | MIC (HAEMOPHILUS INFLUENZAE; read-out: SIMC, Table 3, SPK AMP R): 4 µg/mL (≈ 5.45 µM) | MIC (KLEBSIELLA PNEUMONIAE): > 100 µg/mL | MIC (MYCOBACTERIIUM SMEGMATIS): 12.5 µg/mL (≈ 17 µM) | MIC (M[…] [3]): 0.39 µg/mL (≈ 0.531 µM) | MIC (NOCARDIA ASTEROIDES): 0.005 µg/mL (≈ 0.00681 µM) | MIC (PROVIDENCIA STUART II): > 100 µg/mL | MIC (PSEUDOMONAS AERUGINOSA; read-out: SMIC, Table 2, 5007): > 100 µg/mL | MIC (PSEUDOMONAS AERUGINOSA; read-out: SMIC, Table 2, BMH10): 100 µg/mL (≈ 136 µM) | MIC (PSEUDOMONAS AERUGINOSA; read-out: SMIC, Table 2, DPHD-2862): > 100 µg/mL | MIC (PSEUDOMONAS AERUGINOSA; read-out: SMIC, Table 2, DPHD-5263): > 100 µg/mL | MIC (PSEUDOMONAS AERUGINOSA; read-out: SMIC, Table 2, K799/61): 0.78 µg/mL (≈ 1.06 µM) | MIC (PSEUDOMONAS AERUGINOSA; read-out: SMIC, Table 2, K799/wt): > 100 µg/mL | MIC (PSEUDOMONAS CEPACIA): > 100 µg/mL | MIC (STAPHYLOCOCCUS AUREUS; ATCC6538P, read-out: SMIC, Table 2, ATCC 6538P): 0.39 µg/mL (≈ 0.531 µM) | MIC (STAPHYLOCOCCUS AUREUS; read-out: SMIC, Table 2, 1775): > 100 µg/mL | MIC (STAPHYLOCOCCUS AUREUS; read-out: SMIC, Table 2, A5177): 12.5 µg/mL (≈ 17 µM) | MIC (STAPHYLOCOCCUS AUREUS; read-out: SMIC, Table 2, A-5278): > 100 µg/mL | MIC (STAPHYLOCOCCUS AUREUS; read-out: SMIC, Table 2, CMX 553): 0.39 µg/mL (≈ 0.531 µM) | MIC (STAPHYLOCOCCUS AUREUS; read-out: SMIC, Table 2, CMX 642A): 0.39 µg/mL (≈ 0.531 µM) | MIC (STAPHYLOCOCCUS AUREUS; read-out: SMIC, Table 2, NCTC10649M): 0.39 µg/mL (≈ 0.531 µM) | MIC (STAPHYLOCOCCUS BOVIS): 0.01 µg/mL (≈ 0.0136 µM) | MIC [4]: 0.2 µg/mL (≈ 0.273 µM) | MIC ([5]; read-out: SIMC, Table 3, 5649): 8 µg/mL (≈ 10.9 µM) | MIC ([5]; read-out: SIMC, Table 3, 5654): 16 µg/mL (≈ 21.8 µM) | MIC ([5]; read-out: SIMC, Table 3, 5728): 128 µg/mL (≈ 174 µM) | MIC ([5]; read-out: SIMC, Table 3, 5737): 128 µg/mL (≈ 174 µM) | MIC ([5]; read-out: SIMC, Table 3, 5979): 128 µg/mL (≈ 174 µM) | MIC ([5]; read-out: SIMC, Table 3, GYR 1171): 0.03 µg/mL (≈ 0.0409 µM) | MIC (STAPHYLOCOCCUS PYOGENES; read-out: SIMC, Table 3, 930): 128 µg/mL (≈ 174 µM) | MIC (STAPHYLOCOCCUS PYOGENES; read-out: SIMC, Table 3, EES61): 0.03 µg/mL (≈ 0.0409 µM) | MIC (STAPHYLOCOCCUS PYOGENES; read-out: SIMC, Table 3, PIU 2548): 16 µg/mL (≈ 21.8 µM) | MIC (STAPHYLOCOCCUS PYOGENES; read-out: SMIC, Table 2, 930): > 100 µg/mL | MIC (STAPHYLOCOCCUS PYOGENES; read-out: SMIC, Table 2, EES61): 0.01 µg/mL (≈ 0.0136 µM) | MIC (STAPHYLOCOCCUS PYOGENES; read-out: SMIC, Table 2, PIU 2548): 6.2 µg/mL (≈ 8.45 µM) | MIC (M[…] [6]): 0.01 µg/mL (≈ 0.0136 µM) | MIC (EN[…] [7]): > 100 µg/mL | MIC (CANDIDA ALBICANS): > 100 µg/mL
